From publication PMC9138994 (Biomolecules, 2022)
“And” between values parts separate entries of the source, which are not always exact repeats. Equal values may be shown once. Marks after values point to notes of the source that are not given here.

Tests used:
[1] = target: T1, human serotonin 5-HT2A receptor (Homo sapiens, UniProt P28223); assay: Radioligand displacement assay at 5-HT2A ([3H]-ketanserin, CHO-K1 cells); format: binding; conditions: CHO-K1 cells expressing human 5-HT2A, read-out: Ki ± SD (n), 5-HT2A
T1 construct: host or cells: CHO-K1
T1 sequence (P28223 whole entry): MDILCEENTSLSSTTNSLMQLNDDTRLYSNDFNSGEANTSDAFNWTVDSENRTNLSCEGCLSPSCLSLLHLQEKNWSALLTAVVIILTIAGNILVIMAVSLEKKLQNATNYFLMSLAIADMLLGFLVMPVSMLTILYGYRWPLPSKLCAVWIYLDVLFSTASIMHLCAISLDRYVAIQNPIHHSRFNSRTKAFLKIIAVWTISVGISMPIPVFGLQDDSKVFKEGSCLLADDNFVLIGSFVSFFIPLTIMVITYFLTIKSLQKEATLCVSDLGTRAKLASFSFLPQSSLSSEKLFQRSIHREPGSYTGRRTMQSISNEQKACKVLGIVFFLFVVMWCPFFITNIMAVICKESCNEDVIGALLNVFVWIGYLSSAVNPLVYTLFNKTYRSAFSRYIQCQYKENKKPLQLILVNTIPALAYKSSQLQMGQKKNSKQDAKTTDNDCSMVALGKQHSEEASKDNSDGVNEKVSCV

[2] = target: T2, human D2L (Homo sapiens, UniProt P14416); assay: Radioligand displacement assay at dopamine D2R ([3H]-raclopride, HEK293 cells); format: binding; conditions: HEK293 cells stably expressing human D2R, read-out: Ki ± SD (n), D2R
T2 construct: expressed in transfected cells; host or cells: HEK293
T2 sequence (P14416 whole entry): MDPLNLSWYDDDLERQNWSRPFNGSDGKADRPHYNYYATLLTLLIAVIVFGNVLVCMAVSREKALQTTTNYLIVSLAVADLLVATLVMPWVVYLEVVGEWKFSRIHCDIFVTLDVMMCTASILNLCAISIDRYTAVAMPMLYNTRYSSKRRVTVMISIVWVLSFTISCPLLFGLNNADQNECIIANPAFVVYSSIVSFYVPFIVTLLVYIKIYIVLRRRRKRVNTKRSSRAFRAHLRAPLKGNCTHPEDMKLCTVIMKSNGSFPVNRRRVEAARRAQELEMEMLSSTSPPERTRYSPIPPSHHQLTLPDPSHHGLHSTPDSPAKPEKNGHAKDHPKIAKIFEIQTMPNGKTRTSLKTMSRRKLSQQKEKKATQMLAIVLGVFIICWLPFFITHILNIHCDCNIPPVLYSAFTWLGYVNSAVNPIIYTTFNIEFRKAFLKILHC

[3] = target: T3, hD3R (Homo sapiens, UniProt P35462); assay: Radioligand displacement assay at dopamine D3R ([3H]-spiperone, CHO-K1 cells); format: binding; conditions: CHO-K1 cells stably expressing human D3R, read-out: Ki (n), D3R
T3 construct: expressed in transfected cells; host or cells: CHO-K1
T3 sequence (P35462 whole entry): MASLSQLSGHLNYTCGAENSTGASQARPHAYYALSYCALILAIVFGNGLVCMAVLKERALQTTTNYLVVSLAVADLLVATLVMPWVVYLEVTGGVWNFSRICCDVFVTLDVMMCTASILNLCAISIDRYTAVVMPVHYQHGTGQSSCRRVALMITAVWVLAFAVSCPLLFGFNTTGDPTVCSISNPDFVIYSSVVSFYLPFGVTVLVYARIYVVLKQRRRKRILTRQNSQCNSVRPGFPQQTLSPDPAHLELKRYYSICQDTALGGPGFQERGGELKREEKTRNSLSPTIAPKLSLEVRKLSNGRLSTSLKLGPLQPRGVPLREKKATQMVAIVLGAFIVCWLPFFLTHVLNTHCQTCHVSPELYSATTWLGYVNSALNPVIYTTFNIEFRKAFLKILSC
Procedure: To determine the human D3R affinity, compounds and reference substances were tested in a [^3H]-spiperone competition binding assay as described by Bautista-Aguilera et al.. The assay was conducted with membrane preparations of CHO-K1 cells stably expressing hD3R. Membrane fractions (20 μg/well in a final volume of 0.2 mL binding buffer) were incubated with [^3H]-spiperone (0.2 nM) and the test compounds for 120 min at r.t. under shaking. Assays were run in triplicates with at least six appropriate concentrations between 0.1 nM and 100 µM for the test compound. Nonspecific binding was determined in the presence of 10 µM haloperidol.

[4] = target: T4, hH4R (Homo sapiens, UniProt P04899+Q9H3N8); assay: [3H]-histamine competition binding assay at histamine H4R (Sf9 membranes); conditions: Sf9 cell membranes expressing human H4R with Gαi2 and Gβ1γ2, read-out: Ki (n), H4R
T4 construct: expressed in transfected cells; host or cells: Sf9 insect cells
T4 sequence (Q9H3N8+P04899 fused): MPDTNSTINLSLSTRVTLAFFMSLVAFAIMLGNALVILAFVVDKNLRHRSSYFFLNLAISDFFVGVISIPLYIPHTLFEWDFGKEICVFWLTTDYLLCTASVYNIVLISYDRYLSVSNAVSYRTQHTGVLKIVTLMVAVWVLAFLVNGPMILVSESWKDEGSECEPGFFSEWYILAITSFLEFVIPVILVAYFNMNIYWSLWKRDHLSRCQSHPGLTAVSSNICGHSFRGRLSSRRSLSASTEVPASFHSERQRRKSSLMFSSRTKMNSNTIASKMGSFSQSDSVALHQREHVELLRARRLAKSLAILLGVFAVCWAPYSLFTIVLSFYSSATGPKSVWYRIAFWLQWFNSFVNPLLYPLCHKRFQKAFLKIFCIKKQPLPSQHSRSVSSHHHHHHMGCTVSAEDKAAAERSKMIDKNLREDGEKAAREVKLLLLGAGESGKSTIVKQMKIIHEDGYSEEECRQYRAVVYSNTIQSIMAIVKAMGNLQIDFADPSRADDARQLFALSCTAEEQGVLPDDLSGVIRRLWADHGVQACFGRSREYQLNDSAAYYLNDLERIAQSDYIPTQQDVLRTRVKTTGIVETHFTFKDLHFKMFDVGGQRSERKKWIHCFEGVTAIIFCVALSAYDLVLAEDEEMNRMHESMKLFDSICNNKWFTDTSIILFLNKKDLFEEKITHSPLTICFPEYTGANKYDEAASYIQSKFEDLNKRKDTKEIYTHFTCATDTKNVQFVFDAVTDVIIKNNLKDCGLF
Procedure: To determine the human H4R affinity, compounds and reference structures were examined in a [^3H]-histamine dihydrochloride competition binding assay. Cell culture and membrane preparation of Sf9 cells co-expressing hH4R-Gαi2 fusion protein with Gβ1γ2 was prepared as described by Schneider and co-workers.
The competition binding assay has been performed as described previously by Sander, Kottke, and Schwed from the Stark Lab. Cell membranes were sedimented by 3 min centrifugation at 25 °C and […] and were resuspended in binding buffer. Competition binding experiments were carried out by incubating the membranes (40 µg/0.2 mL binding buffer) and [^3H]-histamine dihydrochloride (10 nM) with test compounds for 60 min at r.t. Assays were run in triplicates with four to seven appropriate concentrations between 0.1 nM and 100 µM for the test compound. Nonspecific binding was determined in the presence of 100 µM JNJ7777120. The following steps were performed as described before.

[5] = target: T5, hD1R (Homo sapiens, UniProt P21728); assay: Radioligand displacement assay at dopamine D1R ([3H]-SCH23390, HEK293 cells); format: binding; conditions: HEK293 cells stably expressing human D1R, read-out: Ki (n), D1R
T5 construct: expressed in transfected cells; host or cells: HEK293
T5 sequence (P21728 whole entry): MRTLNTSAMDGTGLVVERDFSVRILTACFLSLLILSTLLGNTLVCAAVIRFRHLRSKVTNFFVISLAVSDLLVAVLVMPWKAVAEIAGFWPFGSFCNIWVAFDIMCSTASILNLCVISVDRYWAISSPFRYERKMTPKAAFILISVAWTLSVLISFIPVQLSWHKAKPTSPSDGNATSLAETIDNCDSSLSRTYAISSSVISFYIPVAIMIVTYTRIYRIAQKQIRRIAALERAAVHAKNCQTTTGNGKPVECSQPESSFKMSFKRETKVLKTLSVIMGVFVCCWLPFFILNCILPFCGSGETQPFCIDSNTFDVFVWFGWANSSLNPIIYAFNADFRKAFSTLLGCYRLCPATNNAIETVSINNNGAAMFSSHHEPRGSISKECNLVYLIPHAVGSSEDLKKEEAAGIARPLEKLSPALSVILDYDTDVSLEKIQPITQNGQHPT
Procedure: hD1R affinity was determined according to the procedure of hD3R [43]. Membrane preparations of HEK293 cells stably expressing the hD1R were used with 20 µg/well. [^3H]-SCH23390 was used as radioligand in a concentration of 0.3 nM. Nonspecific binding was determined in the presence of 100 µM fluphenazine. The following steps were performed as describedbefore.

[6] = target: T6, human histamine H3 receptor (Homo sapiens, UniProt Q9Y5N1); assay: Radioligand displacement assay at histamine H3 receptor ([3H]-Nα-methylhistamine, HEK293 membranes); format: binding; conditions: HEK293 cells stably expressing human H3R, read-out: Ki [CI 95%] (n), H3R
T6 construct: expressed in transfected cells; host or cells: HEK293
T6 sequence (Q9Y5N1 whole entry): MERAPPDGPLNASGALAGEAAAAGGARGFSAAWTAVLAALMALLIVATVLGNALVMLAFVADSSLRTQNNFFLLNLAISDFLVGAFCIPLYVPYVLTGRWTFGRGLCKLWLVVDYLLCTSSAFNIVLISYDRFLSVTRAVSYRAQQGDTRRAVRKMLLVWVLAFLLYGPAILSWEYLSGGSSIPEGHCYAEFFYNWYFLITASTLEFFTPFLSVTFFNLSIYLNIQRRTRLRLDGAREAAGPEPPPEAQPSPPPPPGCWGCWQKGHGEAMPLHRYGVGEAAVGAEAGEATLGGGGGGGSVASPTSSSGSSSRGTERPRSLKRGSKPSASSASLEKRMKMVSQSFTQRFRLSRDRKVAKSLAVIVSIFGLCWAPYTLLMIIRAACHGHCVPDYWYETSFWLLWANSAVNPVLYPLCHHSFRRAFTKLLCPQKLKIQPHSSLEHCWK
Procedure: Radioligand displacement assays were performed as described previously. HEK293 cells stably expressing the human histamine H3 receptor [37] were grown in Dulbecco’s modified Eagle’s medium, supplemented with 2 mM glutamine, 10 mM HEPES, 10% fetal bovine serum, and 10 μL/mL penicillin/streptomycin in an atmosphere of 5% CO2 at 37 °C. Cells were grown to confluence. The medium was removed, and cells were collected in 15 mL ice-cold phosphate-buffered saline (PBS) (140 mM NaCl, 3 mM KCl, 1.5 mM KH2PO4, 8 mM Na2HPO4, pH 7.4). The cell suspension was centrifuged two times at 3000× g for 10 min with subsequent aspiration in 20 mL of PBS buffer at 4 °C. […]
Competition binding experiments were carried out as follows: membranes (20 μg/well in a final volume of 0.2 mL binding buffer) were incubated with [^3H]-N^α-methylhistamine (2 nM), purchased from PerkinElmer (Waltham, MA, USA), and different concentrations of the respective test ligand. […] Non-specific binding was determined in the presence of the selectively acting histamine H3 receptor inverse agonist/antagonist pitolisant (10 μM). […] Liquid scintillation counting using a PerkinElmer MicroBeta Trilux scintillation counter was used to determine the amount of radioactivity collected on the filter used in the current experiment. […]

[7] = test system: D1R; parameters: method as in earlier work; conditions: ref 19 (Vanover et al.); cited from earlier work
[8] = test system: H3R; parameters: method as in earlier work; conditions: ref 19 (Vanover et al.); cited from earlier work

| SMILES | Ki [1] | Ki [2] | Ki [3] | Ki [4] | Ki [5] | Ki [6] | inhibition at 10 µM, D1R [7] | inhibition at 10 µM, H3R [8] |
| --- | --- | --- | --- | --- | --- | --- | --- | --- |
| CN1CCC(N(Cc2ccc(F)cc2)C(=O)NCc2ccc(OCCCN3CCCCC3)cc2)CC1 [ST-2300, 1-(4-Fluorobenzyl)-1-(1-methylpiperidin-4-yl)-3-{4-[3-(piperidin-1-yl)propoxy]benzyl}urea] | 1300 ± 331 nM | > 10000 nM | > 10000 nM | > 1000 nM | > 10000 nM | 14 nM and 14.4 nM | – | – |
| CC(C)COc1ccc(CNC(=O)N(Cc2ccc(F)cc2)C2CCN(C)CC2)cc1 [Pimavanserin, reference compound] | – | – | – | – | – | – | inhibition at 10 µM: <50% ^a | inhibition at 10 µM: <50% ^a |
